Test results as given in PubChem BioAssay (NCI).
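These data come from cells grown in 96-well plates and exposed to compound for 48 hours at five concentrations. GI50 marks 50% less growth. The concentration for full growth arrest is given as TGI.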

What was measured:
Assay in all cases: inhibition of tumour cell growth, NCI panel, 48 h
[1] = tested on: UACC-62 melanoma
[2] = tested on: MDA-MB-435
[3] = tested on: RPMI-8226 leukemia
[4] = tested on: SK-OV-3 ovarian
[5] = tested on: SK-MEL-5 melanoma
[6] = tested on: K-562 leukemia
[7] = tested on: RXF 393 renal
[8] = tested on: UO-31 renal
[9] = tested on: SR leukemia
[10] = tested on: HCC-2998 colon
[11] = tested on: CAKI-1 renal
[12] = tested on: COLO 205 colon
[13] = tested on: NCI-H460 lung
[14] = tested on: ACHN renal
[15] = tested on: HCT-15 colon
[16] = tested on: MALME-3M melanoma
[17] = tested on: SK-MEL-2 melanoma
[18] = tested on: CCRF-CEM leukemia
[19] = tested on: OVCAR-8 ovarian
[20] = tested on: EKVX NSCLC
[21] = tested on: HOP-62 NSCLC
[22] = tested on: HCT-116 colon
[23] = tested on: MCF7 breast
[24] = tested on: SN12C renal
[25] = tested on: HL-60(TB) leukemia
[26] = tested on: U251 CNS
[27] = tested on: BT-549 breast
[28] = tested on: T-47D breast
[29] = tested on: SW-620 colon
[30] = tested on: IGROV1 ovarian
[31] = tested on: SF-539 CNS
[32] = tested on: OVCAR-4 ovarian
[33] = tested on: M14 melanoma
[34] = tested on: DU-145 prostate
[35] = tested on: NCI/ADR-RES ovarian
[36] = tested on: KM12 colon
[37] = tested on: A498 renal
[38] = tested on: A549 NSCLC
[39] = tested on: 786-0 renal
[40] = tested on: MOLT-4 leukemia
[41] = tested on: OVCAR-3 ovarian
[42] = tested on: HT29 colon
[43] = tested on: NCI-H23 lung
[44] = tested on: SF-295 CNS
[45] = tested on: LOX IMVI melanoma
[46] = tested on: SK-MEL-28 melanoma
[47] = tested on: UACC-257 melanoma
[48] = tested on: NCI-H226 lung
[49] = tested on: NCI-H522 lung
[50] = tested on: SNB-19 CNS
[51] = tested on: SNB-75 CNS
[52] = tested on: TK-10 renal
[53] = tested on: HOP-92 NSCLC
[54] = tested on: HS 578T breast
[55] = tested on: OVCAR-5 ovarian
[56] = tested on: SF-268 CNS
[57] = tested on: MDA-MB-231 breast
[58] = tested on: PC-3 prostate

Question: With Nc1nc(N)c2c(n1)NC(c1ccccc1)C1CCc3ccccc3C1=N2 (stereo not given) as the compound, how does the GI50 [1] read?
Answer: Its GI50 is 3.11 µM.

Question: And the TGI [1]?
Answer: Its TGI is 18.2 µM.

Question: And the GI50 [2]?
Answer: Its GI50 is 2.93 µM.

Question: And the TGI [2]?
Answer: Its TGI is 12.6 µM.

Question: And the GI50 [3]?
Answer: The GI50 was 3.21 µM.

Question: What about the TGI [3] of the same compound?
Answer: The TGI was 87.1 µM.

Question: And the GI50 [4]?
Answer: The GI50 was 10.3 µM.

Question: What about the TGI [4] of the same compound?
Answer: The TGI was 22.7 µM.

Question: What about the GI50 [5] of the same compound?
Answer: Its GI50 is 0.638 µM.

Question: And the TGI [5]?
Answer: The TGI was 2.25 µM.

Question: And the GI50 [6]?
Answer: The GI50 was 3.42 µM.

Question: And the GI50 [7]?
Answer: Its GI50 is 4.89 µM.

Question: And the TGI [7]?
Answer: The TGI was 19 µM.

Question: What about the GI50 [8] of the same compound?
Answer: Its GI50 is 2.5 µM.

Question: What about the TGI [8] of the same compound?
Answer: Its TGI is 13.7 µM.

Question: And the GI50 [9]?
Answer: The GI50 was 4.52 µM.

Question: What about the TGI [9] of the same compound?
Answer: Its TGI is greater than 100 µM.

Question: And the GI50 [10]?
Answer: Its GI50 is 3.82 µM.

Question: And the TGI [10]?
Answer: Its TGI is 15.6 µM.

Question: And the GI50 [11]?
Answer: The GI50 was 3.97 µM.

Question: And the TGI [11]?
Answer: The TGI was 18.3 µM.

Question: And the GI50 [12]?
Answer: The GI50 was 3.07 µM.

Question: And the TGI [12]?
Answer: Its TGI is 10.9 µM.

Question: What about the GI50 [13] of the same compound?
Answer: Its GI50 is 3.81 µM.

Question: And the TGI [13]?
Answer: The TGI was 14.4 µM.

Question: And the GI50 [14]?
Answer: The GI50 was 4.38 µM.

Question: What about the TGI [14] of the same compound?
Answer: Its TGI is 16.8 µM.

Question: And the GI50 [15]?
Answer: Its GI50 is 4.06 µM.

Question: What about the TGI [15] of the same compound?
Answer: Its TGI is 17.1 µM.

Question: And the GI50 [16]?
Answer: The GI50 was 2.13 µM.

Question: What about the TGI [16] of the same compound?
Answer: The TGI was 17.9 µM.

Question: And the GI50 [17]?
Answer: Its GI50 is 3.48 µM.

Question: And the TGI [17]?
Answer: The TGI was 14 µM.

Question: And the GI50 [18]?
Answer: Its GI50 is 4.47 µM.

Question: And the TGI [18]?
Answer: Its TGI is greater than 100 µM.

Question: What about the GI50 [19] of the same compound?
Answer: Its GI50 is 4.71 µM.

Question: And the TGI [19]?
Answer: Its TGI is 25.4 µM.

Question: And the GI50 [20]?
Answer: Its GI50 is 2.68 µM.

Question: What about the TGI [20] of the same compound?
Answer: Its TGI is 15.1 µM.

Question: What about the GI50 [21] of the same compound?
Answer: Its GI50 is 7.87 µM.

Question: What about the TGI [21] of the same compound?
Answer: The TGI was 21.3 µM.

Question: What about the GI50 [22] of the same compound?
Answer: The GI50 was 2.97 µM.

Question: And the TGI [22]?
Answer: The TGI was 12.7 µM.

Question: What about the GI50 [23] of the same compound?
Answer: Its GI50 is 3.25 µM.

Question: What about the TGI [23] of the same compound?
Answer: Its TGI is 13.5 µM.

Question: And the GI50 [24]?
Answer: Its GI50 is 7.33 µM.

Question: What about the TGI [24] of the same compound?
Answer: The TGI was 21.3 µM.

Question: And the GI50 [25]?
Answer: The GI50 was 2.37 µM.

Question: And the TGI [25]?
Answer: Its TGI is 6.01 µM.

Question: And the GI50 [26]?
Answer: Its GI50 is 4.65 µM.

Question: What about the TGI [26] of the same compound?
Answer: Its TGI is 17.4 µM.

Question: And the GI50 [27]?
Answer: The GI50 was 5.42 µM.

Question: And the TGI [27]?
Answer: The TGI was 19.7 µM.

Question: What about the GI50 [28] of the same compound?
Answer: Its GI50 is 4.57 µM.

Question: What about the TGI [28] of the same compound?
Answer: The TGI was 25.6 µM.

Question: What about the GI50 [29] of the same compound?
Answer: The GI50 was 6.3 µM.

Question: And the TGI [29]?
Answer: The TGI was 20.7 µM.

Question: And the GI50 [30]?
Answer: The GI50 was 4.45 µM.

Question: And the TGI [30]?
Answer: Its TGI is 19.4 µM.

Question: What about the GI50 [31] of the same compound?
Answer: Its GI50 is 5.81 µM.

Question: What about the TGI [31] of the same compound?
Answer: The TGI was 18.8 µM.

Question: And the GI50 [32]?
Answer: The GI50 was 3.06 µM.

Question: What about the TGI [32] of the same compound?
Answer: Its TGI is 17.1 µM.

Question: And the GI50 [33]?
Answer: Its GI50 is 4.88 µM.

Question: What about the TGI [33] of the same compound?
Answer: Its TGI is 18 µM.

Question: What about the GI50 [34] of the same compound?
Answer: Its GI50 is 4.38 µM.

Question: What about the TGI [34] of the same compound?
Answer: Its TGI is 17.1 µM.

Question: And the GI50 [35]?
Answer: Its GI50 is 3.13 µM.

Question: And the TGI [35]?
Answer: The TGI was 13.6 µM.

Question: And the GI50 [36]?
Answer: Its GI50 is 4.07 µM.

Question: And the TGI [36]?
Answer: Its TGI is 14.9 µM.

Question: And the GI50 [37]?
Answer: Its GI50 is 2.29 µM.

Question: What about the TGI [37] of the same compound?
Answer: Its TGI is 8.66 µM.

Question: And the GI50 [38]?
Answer: Its GI50 is 7.11 µM.

Question: And the TGI [38]?
Answer: Its TGI is 26 µM.

Question: What about the GI50 [39] of the same compound?
Answer: The GI50 was 5.99 µM.

Question: What about the TGI [39] of the same compound?
Answer: The TGI was 19.1 µM.

Question: What about the GI50 [40] of the same compound?
Answer: The GI50 was 2.7 µM.

Question: What about the TGI [40] of the same compound?
Answer: Its TGI is 14.7 µM.

Question: What about the GI50 [41] of the same compound?
Answer: The GI50 was 3.48 µM.

Question: What about the TGI [41] of the same compound?
Answer: Its TGI is 15.4 µM.

Question: What about the GI50 [42] of the same compound?
Answer: The GI50 was 3.66 µM.

Question: And the TGI [42]?
Answer: Its TGI is 14.4 µM.

Question: What about the GI50 [43] of the same compound?
Answer: Its GI50 is 4.56 µM.

Question: And the TGI [43]?
Answer: Its TGI is 19.4 µM.

Question: What about the GI50 [44] of the same compound?
Answer: The GI50 was 1.69 µM.

Question: What about the TGI [44] of the same compound?
Answer: The TGI was 8.12 µM.

Question: And the GI50 [45]?
Answer: The GI50 was 3.79 µM.

Question: What about the TGI [45] of the same compound?
Answer: The TGI was 15.1 µM.

Question: And the GI50 [46]?
Answer: The GI50 was 7.72 µM.

Question: What about the TGI [46] of the same compound?
Answer: The TGI was 20.2 µM.

Question: What about the GI50 [47] of the same compound?
Answer: The GI50 was 3.72 µM.

Question: What about the TGI [47] of the same compound?
Answer: Its TGI is 15 µM.

Question: And the GI50 [48]?
Answer: Its GI50 is 5.96 µM.

Question: And the TGI [48]?
Answer: The TGI was 28.9 µM.

Question: And the GI50 [49]?
Answer: Its GI50 is 4.53 µM.

Question: And the TGI [49]?
Answer: The TGI was 21.2 µM.

Question: What about the GI50 [50] of the same compound?
Answer: The GI50 was 15.6 µM.

Question: And the TGI [50]?
Answer: Its TGI is 29.8 µM.

Question: And the GI50 [51]?
Answer: Its GI50 is 7.95 µM.

Question: And the TGI [51]?
Answer: The TGI was 20.8 µM.

Question: What about the GI50 [52] of the same compound?
Answer: Its GI50 is 3.01 µM.

Question: What about the TGI [52] of the same compound?
Answer: The TGI was 14.8 µM.

Question: What about the GI50 [53] of the same compound?
Answer: The GI50 was 2.55 µM.

Question: And the TGI [53]?
Answer: Its TGI is 10.8 µM.

Question: What about the GI50 [54] of the same compound?
Answer: Its GI50 is 5.85 µM.

Question: And the TGI [54]?
Answer: Its TGI is 30 µM.

Question: And the GI50 [55]?
Answer: Its GI50 is 14.2 µM.

Question: What about the TGI [55] of the same compound?
Answer: The TGI was 28 µM.

Question: And the GI50 [56]?
Answer: Its GI50 is 6.96 µM.

Question: What about the TGI [56] of the same compound?
Answer: The TGI was 20 µM.

Question: And the GI50 [57]?
Answer: Its GI50 is 6.02 µM.

Question: What about the TGI [57] of the same compound?
Answer: Its TGI is 20.3 µM.

Question: And the GI50 [58]?
Answer: Its GI50 is 2.82 µM.

Question: What about the TGI [58] of the same compound?
Answer: Its TGI is 47.7 µM.
